Measured values as given in patent US9920090B2, “Betulinic acid derivatives with HIV maturation inhibitory activity” (priority 2014, dated 2018).

What follows are compounds tested on recombinant NL4-3 virus (nef section replaced with Renilla luciferase gene, Gag P373S) (assay: HIV Cell Culture Assay (luciferase reporter virus in MT-2 cells)). Conditions: NL43.
Assay type: cell-based
Method: MT-2 cells and 293T cells were obtained from the NIH AIDS Research and Reference Reagent Program. MT-2 cells were propagated in RPMI 1640 media supplemented with 10% heat inactivated fetal bovine serum, […]. The 293T cells were propagated in DMEM media supplemented with 10% heat inactivated fetal bovine serum (FBS), 100 units/mL penicillin G and 100 μg/mL streptomycin. The proviral DNA clone of NL4-3 was obtained from the NIH AIDS Research and Reference Reagent Program. A recombinant NL4-3 virus, in which a section of the nef gene from NL4-3 was replaced with the Renilla luciferase gene, was used as a reference virus. In addition, residue Gag P373 was converted to P373S. Briefly, the recombinant virus was prepared by transfection of the altered proviral clone of NL4-3. Transfections were performed in 293T cells using LipofectAMINE PLUS from Invitrogen (Carlsbad, Calif.), according to manufacturer's instruction. The virus was titered in MT-2 cells using luciferase enzyme activity as a marker. Luciferase was quantitated using the Dual Luciferase kit from Promega (Madison, Wis.), with modifications to the manufacturer's protocol. The diluted Passive Lysis solution was pre-mixed with the re-suspended Luciferase Assay Reagent and the re-suspended Stop & Glo Substrate (2:1:1 ratio). Fifty (50) μL of the mixture was added to each aspirated well on assay plates and luciferase activity was measured immediately on a Wallac TriLux (Perkin-Elmer). Antiviral activities of inhibitors toward the recombinant virus were quantified by measuring luciferase activity in cells infected for 4-5 days with NLRluc recombinants in the presence serial dilutions of the inhibitor.

SMILES | EC50
C=C(C)[C@@H]1CC[C@]2(NCCN3CCS(=O)(=O)CC3)C[C@H](O)[C@]3(C)[C@H](CC[C@@H]4[C@@]5(C)CC=C(c6ccc(C(=O)O)cc6)C(C)(C)[C@@H]5C[C@H](O)[C@]43C)[C@@H]12 [Example 3, 4-((1R,3aS,5S,5aR,5bR,6S,7aR,11aS,11bR,13aR,13bR)-3a-((2-(1,1-dioxidothiomorpholino)ethyl)amino)-5,6-dihydroxy-5a,5b,8,8,11a-pentamethyl-1-(prop-1-en-2-yl)-2,3,3a,4,5,5a,5b,6,7,7a,8,11,11a,11b,12,13,13a,13b-octadecahydro-1H-cyclopenta[a]chrysen-9-yl)benzoic acid] | 17 nM
C=C(C)[C@@H]1CC[C@]2(C(=O)O)C[C@H](O)[C@]3(C)[C@H](CC[C@@H]4[C@@]5(C)CC=C(c6ccc(C(=O)O)cc6)C(C)(C)[C@@H]5C[C@H](O)[C@]43C)[C@@H]12 [Example 2, (1R,3aS,5S,5aR,5bR,6S,7aR,11aS,11bR,13aR,13bR)-9-(4-carboxyphenyl)-5,6-dihydroxy-5a,5b,8,8,11a-pentamethyl-1-(prop-1-en-2-yl)-2,3,3a,4,5,5a,5b,6,7,7a,8,11,11a,11b,12,13,13a,13b-octadecahydro-1H-cyclopenta[a]chrysene-3a-carboxylic acid] | 1560 nM
CC(C)[C@@H]1CC[C@]2(C(=O)O)CC[C@]3(C)[C@H](CC[C@@H]4[C@@]5(C)[C@H](O)C=C(c6ccc(C(=O)O)cc6)C(C)(C)[C@@H]5CC[C@]43C)[C@@H]12 [Example 6, (1S,3aS,5aR,5bR,7aS,11R,11aS,11bS,13aR,13bR)-9-(4-carboxyphenyl)-11-hydroxy-1-isopropyl-5a,5b,8,8,11a-pentamethyl-2,3,3a,4,5,5a,5b,6,7,7a,8,11,11a,11b,12,13,13a,13b-octadecahydro-1H-cyclopenta[a]chrysene-3a-carboxylic acid] | 1730 nM
CC(C)[C@@H]1CC[C@]2(C(=O)O)CC[C@]3(C)[C@H](CC[C@@H]4[C@@]5(C)C[C@@H]6O[C@]6(c6ccc(C(=O)O)cc6)C(C)(C)[C@@H]5CC[C@]43C)[C@@H]12 [Example 11, (1S,3aS,5aR,5bR,7aR,8aS,9aS,10aR,10bR,12aR,12bR)-8a-(4-carboxyphenyl)-1-isopropyl-5a,5b,8,8,10a-pentamethylicosahydro-1H-cyclopenta[7,8]chryseno[2,3-b]oxirene-3a-carboxylic acid] | 1310 nM
CC(C)[C@@H]1CC[C@]2(C(=O)NCCCN3CCS(=O)(=O)CC3)CC[C@]3(C)[C@H](CC[C@@H]4[C@@]5(C)[C@H](F)C=C(c6ccc(C(=O)O)cc6)C(C)(C)[C@@H]5CC[C@]43C)[C@@H]12 [Example 8, 4-((1S,3aS,5aR,5bR,7aS,11R,11aS,11bS,13aR,13bR)-3a-((3-(1,1-dioxidothiomorpholino)propyl)carbamoyl)-11-fluoro-1-isopropyl-5a,5b,8,8,11a-pentamethyl-2,3,3a,4,5,5a,5b,6,7,7a,8,11,11a,11b,12,13,13a,13b-octadecahydro-1H-cyclopenta[a]chrysen-9-yl)benzoic acid] | 3.31 nM
CC(C)[C@@H]1CC[C@]2(C(=O)O)CC[C@]3(C)[C@H](CC[C@@H]4[C@@]5(C)[C@@H](O)C=C(c6ccc(C(=O)O)cc6)C(C)(C)[C@@H]5CC[C@]43C)[C@@H]12 [Example 5, (1S,3aS,5aR,5bR,7aS,11S,11aS,11bS,13aR,13bR)-9-(4-carboxyphenyl)-11-hydroxy-1-isopropyl-5a,5b,8,8,11a-pentamethyl-2,3,3a,4,5,5a,5b,6,7,7a,8,11,11a,11b,12,13,13a,13b-octadecahydro-1H-cyclopenta[a]chrysene-3a-carboxylic acid] | 410 nM
CC(C)[C@@H]1CC[C@]2(NCCN3CCS(=O)(=O)CC3)CC[C@]3(C)[C@H](CC[C@@H]4[C@@]5(C)C(=O)C=C(c6ccc(C(=O)O)cc6)C(C)(C)[C@@H]5CC[C@]43C)[C@@H]12 [Example 10, 4-((1S,3aS,5aR,5bR,7aS,11aS,11bS,13aR,13bR)-3a-((2-(1,1-dioxidothiomorpholino)ethyl)amino)-1-isopropyl-5a,5b,8,8,11a-pentamethyl-11-oxo-2,3,3a,4,5,5a,5b,6,7,7a,8,11,11a,11b,12,13,13a,13b-octadecahydro-1H-cyclopenta[a]chrysen-9-yl)benzoic acid] | 1.2 nM
CC(C)[C@@H]1CC[C@]2(C(=O)O)CC[C@]3(C)[C@H](CC[C@@H]4[C@@]5(C)C(=O)C=C(c6ccc(C(=O)O)cc6)C(C)(C)[C@@H]5CC[C@]43C)[C@@H]12 [Example 4, (1S,3aS,5aR,5bR,7aS,11aS,11bS,13aR,13bR)-9-(4-carboxyphenyl)-1-isopropyl-5a,5b,8,8,11a-pentamethyl-11-oxo-2,3,3a,4,5,5a,5b,6,7,7a,8,11,11a,11b,12,13,13a,13b-octadecahydro-1H-cyclopenta[a]chrysene-3a-carboxylic acid] | 29 nM
CC(C)[C@@H]1CC[C@]2(N)CC[C@]3(C)[C@H](CC[C@@H]4[C@@]5(C)C(=O)C=C(c6ccc(C(=O)O)cc6)C(C)(C)[C@@H]5CC[C@]43C)[C@@H]12 [Example 9, 4-((1S,3aS,5aR,5bR,7aS,11aS,11bS,13aR,13bR)-3a-amino-1-isopropyl-5a,5b,8,8,11a-pentamethyl-11-oxo-2,3,3a,4,5,5a,5b,6,7,7a,8,11,11a,11b,12,13,13a,13b-octadecahydro-1H-cyclopenta[a]chrysen-9-yl)benzoic acid] | 1.2 nM
C=C(C)[C@@H]1CC[C@]2(C(=O)O)C[C@@H]3OC(C)(C)O[C@H]4C[C@H]5C(C)(C)C(c6ccc(C(=O)O)cc6)=CC[C@]5(C)[C@H]5CC[C@H]([C@@H]12)[C@]3(C)[C@]45C [Example 1, (1R,3aS,4aS,4a1R,7aS,7a1R,8aR,12aS,12bR,14aR,14bR)-10-(4-carboxyphenyl)-4a1,6,6,7a1,9,9,12a-heptamethyl-1-(prop-1-en-2-yl)-2,3,3a,4,4a,4a1,7a,7a1,8,8a,9,12,12a,12b,13,14,14a,14b-octadecahydro-1H-cyclopenta[1,2]chryseno[4,5-def][1,3]dioxepine-3a-carboxylic acid] | 40 nM
